In brackets after ≈: the same amount, converted by molar mass.
Legend:
[1] = system: collagen-induced arthritis (CIA) in male DBA/1 mice; assay: CIA model, Example 3 (cumulative scores vs untreated controls); type: in vivo; details: Mus musculus
Experimental: The CIA model data were acquired according to the following protocol: • 1. Male DBA/1 mice were anaesthetized by i.p. injection of ketamine/xylazine (1.25 mg/ml:0.25 mg/ml, 100 μl/mouse). • 2. Anaesthetized mice were immunized intradermally at the base of the tail with 0.1 or 0.2 ml of an emulsion composed of 100 or 200 μg bovine type II collagen in Complete Freund's Adjuvant (50 μl/spot x 2 or 4 spots). • 3. At day 21 after the immunization, mice received an intradermal boost of 100 μl of an emulsion composed of 100 μg bovine type II collagen in Incomplete Freund's Adjuvant (50 μl/spot x 2 spots) • 4. After onset of disease symptoms (usually 3-4 days after boost), tetracycline derivatives were administered daily into mice via intraperitoneal or oral routes for 8 to 15 days. Methotrexate (12 mg/kg/day) or dexmethasone (4 mg/kg/day) was used as a control for inflammation suppression. • 5. The disease severity was scored daily for 8-15 days after the appearance of the symptoms. Disease severity was graded as following: • a. Visual clinical score for the presence of inflammation in the fingers/toes of the forepaws and hindpaws: • 1. Erythema and mild swelling confined to the mid-foot (tarsals) or ankle joint • 2. Erythema and mild swelling extending from the ankle to the mid-foot • 3. Erythema and moderate swelling extending from the ankle to the metatarsal joints • 4. Erythema and severe swelling encompassing the ankle, foot, and digits. • b. Clinical swelling score for the presence of paw edema in the forepaws and hindpaws: • Paw thickness was measured daily by an engineering micrometer after isofluorane inhalation or ketamine/xylazine (1.25 mg/ml:0.25 mg/ml, 100 μl/mouse) i.p. injection.
Daily scores and paw swelling measurements for each treatment group of mice were added over the total observation period to obtain a cumulative score. Cumulative scores were compared between untreated controls and treated groups to determine tetracycline-induced inhibition.

S. aureus RN450 = assay: Antibacterial activity MIC, Gram+ (Table 9); type: cell-based; details: Staphylococcus aureus, CAMHB, 35° C., approximately 18 hr
Experimental: (§1) 2 mg of each compound is dissolved in 100 μl of DMSO. The solution is then added to cation-adjusted Mueller Hinton broth (CAMHB), which results in a final compound concentration of 200 μg per ml. The tetracycline compound solutions are diluted to 50 μL volumes, with a test compound concentration of 0.098 μg/ml. Optical density (OD) determinations are made from fresh log-phase broth cultures of the test strains. Dilutions are made to achieve a final cell density of 1×10^6 CFU/ml. At OD=1, cell densities for different genera should be approximately:
(§2) 50 μl of the cell suspensions are added to each well of microtiter plates. The final cell density should be approximately 5×10^5 CFU/ml. These plates are incubated at 35° C. in an ambient air incubator for approximately 18 hr. The plates are read with a microplate reader and are visually inspected when necessary. The MIC is defined as the lowest concentration of the tetracycline compound that inhibits growth.

E. coli 25922 = assay: Antibacterial activity MIC, Gram- (Table 9); type: cell-based; details: Escherichia coli, CAMHB, 35° C., approximately 18 hr
Experimental: as §1, §2

Structure (SMILES) | inhibition in vivo at 25 mg/kg [1] [%] | MIC (S. aureus RN450) [µg/mL] | MIC (E. coli 25922) [µg/mL] | inhibition in vivo at 12 mg/kg [1] [%] | inhibition in vivo at 6 mg/kg ([1]; Dose 6 mg/kg) [%]
CCOC(=O)c1cc(N(C)C)c2c(c1O)C(=O)C1=C(O)[C@]3(O)C(=O)C(C(N)=O)=C(O)C[C@@H]3C[C@@H]1C2 [AA] | 41 | 2 (≈ 4.11 µM) | > 64 |  | 
CN(C)c1cc(-c2cnoc2)c(O)c2c1C[C@H]1C[C@H]3CC(O)=C(C(N)=O)C(=O)[C@@]3(O)C(O)=C1C2=O [AB] | 38 | 0.5 (≈ 1.04 µM) | > 64 |  | 
CN(C)c1cc(-c2ccn[nH]2)c(O)c2c1C[C@H]1C[C@H]3CC(O)=C(C(N)=O)C(=O)[C@@]3(O)C(O)=C1C2=O [AC] | 33 | 2 (≈ 4.16 µM) | > 64 |  | 
CO/N=C(/C)c1cc(N(C)C)c2c(c1O)C(=O)C1=C(O)[C@]3(O)C(=O)C(C(N)=O)=C(O)C[C@@H]3C[C@@H]1C2 [AD] | 30 | 2 (≈ 4.12 µM) | > 64 |  | 
CN(C)c1cc(-c2cccnc2)c(O)c2c1C[C@H]1C[C@H]3CC(O)=C(C(N)=O)C(=O)[C@@]3(O)C(O)=C1C2=O [AE] | 80 | 1 (≈ 2.03 µM) | > 64 | 65 | 
CN(C)c1cc(-c2ccco2)c(O)c2c1C[C@H]1C[C@H]3CC(O)=C(C(N)=O)C(=O)[C@@]3(O)C(O)=C1C2=O [AG] | 39 | 0.25 (≈ 0.52 µM) | > 64 |  | 
CN(C)c1cc(C(=O)NC(C)(C)C)c(O)c2c1C[C@H]1C[C@H]3CC(O)=C(C(N)=O)C(=O)[C@@]3(O)C(O)=C1C2=O [AH] | 59 | 1 (≈ 1.95 µM) | > 64 |  | 
CN(C)c1cc(C(=O)Nc2ccccc2)c(O)c2c1C[C@H]1C[C@H]3CC(O)=C(C(N)=O)C(=O)[C@@]3(O)C(O)=C1C2=O [AI] | 62 | 0.12 (≈ 0.225 µM) | > 64 |  | 
CN(C)c1cc(-c2nccs2)c(O)c2c1C[C@H]1C[C@H]3CC(O)=C(C(N)=O)C(=O)[C@@]3(O)C(O)=C1C2=O [AJ] | 39 | 0.25 (≈ 0.502 µM) | > 64 |  | 
CN(C)c1cc(C(=O)OCCO)c(O)c2c1C[C@H]1C[C@H]3CC(O)=C(C(N)=O)C(=O)[C@@]3(O)C(O)=C1C2=O [AK] | 24 | > 64 | > 64 |  | 
CCC(=O)c1cc(N(C)C)c2c(c1O)C(=O)C1=C(O)[C@]3(O)C(=O)C(C(N)=O)=C(O)C[C@@H]3C[C@@H]1C2 [AL] | 62 | 1 (≈ 2.13 µM) | > 64 | 31 | 
Cc1cc(N(C)C)c2c(c1O)C(=O)C1=C(O)[C@]3(O)C(=O)C(C(N)=O)=C(O)C[C@@H]3C[C@@H]1C2 [AM] | 73 | 2 (≈ 4.67 µM) | > 64 | 66 | 36
CN(C)c1cc(-c2ccccc2)c(O)c2c1C[C@H]1C[C@H]3CC(O)=C(C(N)=O)C(=O)[C@@]3(O)C(O)=C1C2=O [AN] | 65 | 1 (≈ 2.04 µM) | > 64 | 49 | 
COCCOC(=O)c1cc(N(C)C)c2c(c1O)C(=O)C1=C(O)[C@]3(O)C(=O)C(C(N)=O)=C(O)C[C@@H]3C[C@@H]1C2 [AO] | 52 | 16 (≈ 31 µM) | > 64 |  | 
CN(C)c1cc(C2=CCCCO2)c(O)c2c1C[C@H]1C[C@H]3CC(O)=C(C(N)=O)C(=O)[C@@]3(O)C(O)=C1C2=O [AP] | 63 | 4 (≈ 8.06 µM) | > 64 |  | 
CC(C)c1noc(-c2cc(N(C)C)c3c(c2O)C(=O)C2=C(O)[C@]4(O)C(=O)C(C(N)=O)=C(O)C[C@@H]4C[C@@H]2C3)n1 [AR] | 64 | 0.5 (≈ 0.953 µM) | > 64 |  | 
CN(C)c1cc(-c2ccnn2C)c(O)c2c1C[C@H]1C[C@H]3CC(O)=C(C(N)=O)C(=O)[C@@]3(O)C(O)=C1C2=O [AS] | 56 | 1 (≈ 2.02 µM) | > 64 | 30 | 

Structure (SMILES) | inhibition in vivo at 25 mg/kg [1] [%] | MIC (S. aureus RN450) [µg/mL] | MIC (E. coli 25922) [µg/mL] | inhibition in vivo at 12 mg/kg [1] [%] | inhibition in vivo at 6 mg/kg ([1]; Dose 6 mg/kg) [%]
CC(C)c1cc(N(C)C)c2c(c1O)C(=O)C1=C(O)[C@]3(O)C(=O)C(C(N)=O)=C(O)C[C@@H]3C[C@@H]1C2 [AU] | 51 | 1 (≈ 2.19 µM) | > 64 |  | 
CN(C)c1cc(CC(C)(C)C)c(O)c2c1C[C@H]1C[C@H]3CC(O)=C(C(N)=O)C(=O)[C@@]3(O)C(O)=C1C2=O [AW] | 39 | 0.5 (≈ 1.03 µM) | > 64 |  | 
CN(C)c1cc(C(=O)CC(C)(C)C)c(O)c2c1C[C@H]1C[C@H]3CC(O)=C(C(N)=O)C(=O)[C@@]3(O)C(O)=C1C2=O [AX] | 51 | 0.5 (≈ 0.975 µM) | > 64 |  | 
Cc1ccc(N(C)C)c2c1C(=O)C1=C(O)[C@]3(O)C(=O)C(C(N)=O)=C(O)C[C@@H]3C[C@@H]1C2 [AY] | 38 | 8 (≈ 19.4 µM) | > 64 |  | 
CN(C)c1cc(C(=O)c2ccccc2)c(O)c2c1C[C@H]1C[C@H]3CC(O)=C(C(N)=O)C(=O)[C@@]3(O)C(O)=C1C2=O [AZ] | 36 | 1 (≈ 1.93 µM) | > 64 |  | 
Cc1ccc(O)c2c1C[C@H]1C[C@H]3CC(O)=C(C(N)=O)C(=O)[C@@]3(O)C(O)=C1C2=O [BA] | 34 | 0.25 (≈ 0.649 µM) | 64 (≈ 166 µM) |  | 
NC(=O)C1=C(O)C[C@@H]2C[C@@H]3Cc4c(-c5ncco5)ccc(O)c4C(=O)C3=C(O)[C@]2(O)C1=O [BB] | 47 | 8 (≈ 18.2 µM) | > 64 |  | 
CC(=O)c1ccc(O)c2c1C[C@H]1C[C@H]3CC(O)=C(C(N)=O)C(=O)[C@@]3(O)C(O)=C1C2=O [BC] | 72 | 4 (≈ 9.68 µM) | > 64 |  | 
CN(C)c1cc(C(F)(F)F)c(O)c2c1C[C@H]1C[C@H]3CC(O)=C(C(N)=O)C(=O)[C@@]3(O)C(O)=C1C2=O [BD] | 44 | 0.5 (≈ 1.04 µM) | > 64 |  | 
CN(C)[C@@H]1C(O)=C(C(N)=O)C(=O)[C@@]2(O)C(O)=C3C(=O)c4c(O)ccc(-c5ccc6c(c5)OCO6)c4C[C@H]3C[C@@H]12 [B] | 23 | 0.13 (≈ 0.243 µM) | 64 (≈ 120 µM) |  | 
CC(=O)c1ccc(O)c2c1C[C@H]1C[C@H]3[C@H](N(C)C)C(O)=C(C(N)=O)C(=O)[C@@]3(O)C(O)=C1C2=O [C] | 62 | 0.06 (≈ 0.131 µM) | 0.13 (≈ 0.285 µM) | 62 | 
CN(C)c1cc(C2CC2)c(O)c2c1C[C@H]1C[C@H]3CC(O)=C(C(N)=O)C(=O)[C@@]3(O)C(O)=C1C2=O [Compound AV] | 48 | 1 (≈ 2.2 µM) | > 64 |  | 
CN(C)c1cc(-c2ccccc2)c(O)c2c1C[C@H]1C[C@H]3[C@H](N(C)C)C(O)=C(C(N)=O)C(=O)[C@@]3(O)C(O)=C1C2=O [Compound A] | 42 | 1 (≈ 1.87 µM) | > 64 |  | 
COc1cc(-c2ccc(O)c3c2C[C@H]2C[C@H]4[C@H](N(C)C)C(O)=C(C(N)=O)C(=O)[C@@]4(O)C(O)=C2C3=O)cc(OC)c1OC [Compound D] | 27 |  |  |  | 
CCC(=O)c1cc(N(C)C)c2c(c1O)C(=O)C1=C(O)[C@]3(O)C(=O)C(C(N)=O)=C(O)[C@@H](N(C)C)[C@@H]3C[C@@H]1C2 [Compound M] | 25 | 8 (≈ 15.6 µM) | > 64 |  | 
CN(C)c1ccc(O)c2c1C[C@H]1C[C@H]3CC(O)=C(C(N)=O)C(=O)[C@@]3(O)C(O)=C1C2=O [F] | 55 |  |  |  | 
C=CCc1cc(N(C)C)c2c(c1O)C(=O)C1=C(O)[C@]3(O)C(=O)C(C(N)=O)=C(O)[C@@H](N(C)C)[C@@H]3C[C@@H]1C2 [I] | 29 |  |  |  | 

Reference: US20100190755A1, “TETRACYCLINE COMPOUNDS FOR THE TREATMENT OF RHEUMATOID ARTHRITIS AND RELATED METHODS OF TREATMENT” (priority 2008, published 2010)
